From PMC9982066, “Inhibition of Ehrlichia chaffeensis infection by cell-permeable macrocyclic peptides that bind type IV secretion effector Etf-1” (PNAS Nexus, 2023)
Starred links: 1 amine or outer side, 2 acyl side, 3 side chain; linkers in the order of their positions; H or OH if unused. Positions of bridges follow the written chain, without caps; N, C: chain ends. Non-standard residues stand in square brackets, D forms with d. Residues, ends and D or L forms follow the SMILES beside them. Trimesoyl = O=C(c1cc(C(=O)[*:2])cc(C(=O)[*:3])c1)[*:1]; Phe(4-Cl) = N[C@@H](Cc1ccc(Cl)cc1)C(=O)O; Phe(4-F) = N[C@@H](Cc1ccc(F)cc1)C(=O)O; d2Nal = N[C@H](Cc1ccc2ccccc2c1)C(=O)O; Orn = NCCC[C@H](N)C(=O)O; Dap = NC[C@H](N)C(=O)O

Tests used:
Etf-1 [1] = molecular target: T1, Etf-1 (Ehrlichia chaffeensis, UniProt Q2GG12); test: FP assay of Etf-1 binding with FAM-labeled peptides
Protocol: The peptides were labeled at their C-terminus with carboxyfluorescein (FAM) through a β-Ala-β-Ala-Lys linker and evaluated for binding to Etf-1 by using a fluorescence polarization (FP) assay. […] This outcome is not unexpected, as screening OBOC libraries is often complicated by false positives, due to the presence of high ligand densities on library beads ([28]).
(§1) Fig. 2. Determination of binding affinity of Etf-1-binding peptides by FP assay. […] FAM-labeled peptide (50 nM) was incubated with serially diluted Etf-1 (starting from 25–30 μM in PBS, pH 7.4, supplemented with 5 mM DTT and 0.01% Triton X-100) for 1 h at RT. FP values were measured on a Tecan Infinite M1000 Pro plate reader. Titration curves (n ≥ 3) were fitted using GraphPad Prism and analyzed with TraceDrawer to calculate dissociation constants (KD). […] Data were analyzed using GraphPad Prism and fitted to a four-parameter variable slope equation to determine IC50 values.
Etf-1 and macrocyclic peptides were serially diluted in PBS supplemented with 5 mM DTT and 0.01% Triton X-100 (v/v). FAM-labeled peptides (50 nM) were prepared from a 10-μM DMSO stock and incubated with serially diluted Etf-1 for 1 h at room temperature (RT). Twenty microliters of the solutions were transferred to a black 384-well plate (Greiner Bio-One) and FP values were measured on a Tecan Infinite M1000 Pro plate reader with excitation and emission wavelengths at 470 and 535 nm, respectively. Titration curves (n ≥ 3) were fitted using GraphPad Prism v8.0 (GraphPad, La Jolla, CA, USA), and analyzed with TraceDrawer software v1.8 (Ridgeview Instruments AB, Uppsala, Sweden) to calculate the dissociation constant (KD, in nM).

THP-1 cells = test: CellTiter-Glo luminescent cell viability assay; conditions: 2-day treatment
Excerpt: THP-1 (human promyelocytic leukemia) cells are widely used as E. chaffeensis infection studies of human monocytes in vitro, since initial characterization of infection ([31]).
Fig. 4. Cytotoxicity and proteolytic stability of Etf-1-binding peptides. (A) Effect of Etf-1-binding peptides on the viability of THP-1 cells as determined by CellTiter-Glo luminescent assay. Relative luminescence was plotted as function of the peptide concentration, with the cell viability of DMSO control group set as 100%. (B) Plot of the amount of intact peptide remaining as a function of the incubation time in 25% human serum. All values are normalized to that of peptide at time 0 (100%).
Cytotoxicity of Etf-1-binding peptides was examined by CellTiter-Glo luminescent cell viability assay (Promega, Madison, WI, USA). THP-1 cells were seeded in a transparent 96-well plate at a density of 5 × 10^3 cells/well (100 μL in each well) in RPMI-1640 containing 10% FBS and 1% antibiotics and cultured overnight. Etf-1-binding peptides were serially diluted in DPBS from a DMSO stock and added to the cells with the final concentration of 0–25 μM and a constant final concentration of 0.5% DMSO (v/v). After incubation at 37°C with 5% CO2 for 46 h, the plate was removed and pre-equilibrated to RT before the addition of 100 μL of the CellTiter-Glo 2.0 reagent to each well. The plate was incubated for 15 min on a rotary shaker in the dark, and the luminescence was detected (1-s integration time) on a Tecan Infinite M1000 Pro microplate reader. Relative luminescence was plotted as function of the peptide concentration, with the cell viability of DMSO control group set as 100%.

E. chaffeensis [2] = test: E. chaffeensis infection of THP-1 cells, qPCR of 16S rRNA gene normalized to human actin; type: cell-based, Ehrlichia chaffeensis; conditions: 10 μM, 2 days, vs DMSO control
Protocol: Therefore, we investigated whether these Etf-1-binding peptides can prevent the proliferation of E. chaffeensis inside host cells. THP-1 cells were infected with E. chaffeensis, then treated with the peptides at 30 min post infection (pi) for 2 days. Intracellular infection and proliferation of E. chaffeensis inside host THP-1 cells were assessed using quantitative PCR (qPCR) analysis based on E. chaffeensis 16S rRNA gene normalized by human actin (ACT) gene.
Fig. 5. Effects of Etf-1-binding peptides on E. chaffeensis infection of THP-1 cells. Ehrlichia chaffeensis-infected THP-1 cells at […] were incubated with 10 μM of Etf-1-binding macrocyclic peptide or DMSO control for 2 days.
No antibiotic was used throughout the study.
DNA was extracted from each sample using Qiagen blood mini kit according to the manufacturer's instructions (Qiagen, Valencia, CA, USA), and qPCR analysis was performed in an MX3000P qPCR instrument (Stratagene, San Diego, CA, USA) using SYBR Green Real-Time PCR Master Mix (Thermo Fisher Scientific) according to the manufacturer's instructions. Five-fold serial dilutions of the control group were used to generate a standard curve to calculate the relative copy numbers of E. chaffeensis 16S rRNA normalized against human actin genes using the MX3000P software from Stratagene as described previously ([18], [44]).

E. chaffeensis [3] = test: morphological examination of E. chaffeensis infection of THP-1 cells by Diff-Quik staining; conditions: THP-1 cells, Fig. S4 (with Figs. 5, S3)
Protocol: Ehrlichia chaffeensis Arkansas strain ([43]) was cultured in THP-1 cells (ATCC, Manassas, VA, USA) in RPMI 1640 medium (Corning, Manassas, VA, USA) supplemented with 8% FBS (Atlanta Biologicals, Flowery Branch, GA, USA) and 4 mM L-glutamine (at 37°C under 5% CO2 in a humidified atmosphere. THP-1 cells were seeded at 1 × 10^5 cells/well (in 1.5-mL RPMI 1640 culture medium with 8% FBS, 4 mM L-Gln) in a 12-well plate, then infected with host cell-free E. chaffeensis at an MOI (multiplicity of infection, or numbers of bacteria per cell) of ∼30. Cells were cultured in a humidified incubator with 5% CO2 and 95% air. No antibiotic was used throughout the study. At 0.5 h post infection (pi), cells were incubated with 1–10 μM of peptides or with an equal volume of DMSO (solvent control, 2 μL per mL medium). At 2 days pi, cells were washed with 1 mL of PBS, and two drops of cells were cytospun onto glass slides by a Shandon Cytospin 4 cytocentrifuge (Thermo Fisher Scientific), then fixed and stained with HEMA 3 staining solutions (Thermo Fisher Scientific). Ehrlichia infection was observed and images were captured by a SPOT RT digital camera (Diagnostic Instruments, Sterling Heights, MI, USA) coupled to a Nikon Eclipse E400 microscope (Nikon, Melville, NY, USA).

Etf-1 [4] = molecular target: T1, Etf-1; test: biochemical; type: binding; conditions: unlabeled competitor peptides vs FAM-B7-133-8
Protocol: as §1
Serial dilutions of competitor peptide (0-20 μM) were prepared from DMSO stock solutions into PBS containing 0.01% Triton-X100 and 2 mM TCEP and added to aliquots of the equilibrated Etf-1/probe solution. After incubation for 1 h in the dark and with gentle mixing, 20 μL of each sample was transferred into 384-well black-on-black microplates and FP was measured using a TECAN Infinite M1000 plate reader. Data were analyzed using GraphPad PRISM ver. 8.0 and fit to a four-parameter variable slope equation to determine IC50 values. IC50 values reported are the mean ± SD of n = 2–4 independent experiments.

BECN1 binding to Etf-1 = test: streptavidin magnetic beads pull-down of BECN1 with biotin-Etf-1, Western blot; type: biochemical; conditions: 10 µM peptide; for BECN1/Etf-1 Ratio: band intensities, DMSO control set as 1, Fig. 8B
Protocol: Fig. 8.
Streptavidin magnetic beads (15 µL, Pierce, Rockford, IL, USA) were washed with 1 mL of Bind/Wash buffer (25 mM Tris, pH 7.4; 250 mM NaCl, 0.1% Tween 20), and incubated with 0.15 µg ([…] final concentration) of biotinylated full-length Etf-1 protein in bind/wash buffer at 4°C overnight with end-to-end rotation. Beads were washed three times with Bind/Wash buffer, then incubated with Etf-1-binding macrocyclic peptides (10 µM) or DMSO control in Bind/Wash buffer at room temperature for 2 h. […] Beads were washed three times, and proteins were eluted from the beads with 50 µL of 2× SDS-sample buffer. […] Reacting bands were visualized with enhanced chemiluminescence by incubating the membrane with LumiGLO chemiluminescent reagent (Thermo Fisher Scientific). Images were captured by Amersham Imager 680 (GE Healthcare) and densitometry analysis was performed using ImagQuaNT (GE Healthcare). In each specimen, band intensities were normalized against those of actin as the loading control, and the ratios of the treatment group to the control group were calculated with the value in the control groups arbitrarily set as 1.0.

T1 sequence (Q2GG12 entry or part of it): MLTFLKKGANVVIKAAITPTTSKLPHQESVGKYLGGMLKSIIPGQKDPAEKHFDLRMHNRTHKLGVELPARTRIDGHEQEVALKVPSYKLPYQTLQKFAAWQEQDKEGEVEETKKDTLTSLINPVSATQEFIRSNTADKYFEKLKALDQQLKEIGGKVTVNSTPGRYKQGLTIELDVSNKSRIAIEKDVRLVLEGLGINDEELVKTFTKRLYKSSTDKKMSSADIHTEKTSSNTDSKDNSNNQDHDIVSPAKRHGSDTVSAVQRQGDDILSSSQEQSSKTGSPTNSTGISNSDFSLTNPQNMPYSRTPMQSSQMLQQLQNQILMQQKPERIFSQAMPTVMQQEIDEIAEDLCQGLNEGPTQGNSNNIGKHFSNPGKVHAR

Compound | Kd (Etf-1 [1]) | cell viability (THP-1 cells; 20 μM) | cytotoxicity (THP-1 cells; up to 10 μM) | inhibition of E. chaffeensis infection (E. chaffeensis [2]) | E. chaffeensis infection (numbers and sizes of morulae) (E. chaffeensis [3]) | competition for Etf-1 binding (Etf-1 [4]) | BECN1/Etf-1 Ratio (BECN1 binding to Etf-1) | disruption of BECN1 binding to Etf-1 (BECN1 binding to Etf-1; compared to DMSO control)
CC(C)C[C@H]1NC(=O)[C@H](CO)NC(=O)[C@H]2CCCN2C(=O)[C@H](CCC(N)=O)NC(=O)[C@H](Cc2c[nH]cn2)NC(=O)[C@H](Cc2ccc(O)cc2)NC(=O)c2cc3cc(c2)C(=O)NC[C@H](NC1=O)C(=O)N[C@@H](Cc1ccc(Cl)cc1)C(=O)N[C@H](Cc1ccc2ccccc2c1)C(=O)N[C@H](CCCNC(=N)N)C(=O)N[C@@H](CCCNC(=N)N)C(=O)N[C@H](CCCNC(=N)N)C(=O)N[C@@H](CCCNC(=N)N)C(=O)N[C@H](C(N)=O)CNC3=O [Peptide B7-16, TMA-Tyr-His-Gln-pro-Ser-leu-Dap-4-ClPhe-nal-arg-Arg-arg-Arg-Dap] (YHQ[dP]S[dL][Dap][Phe(4-Cl)][d2Nal][dR]R[dR]R[Dap]-NH2; linker N-7-14 via Trimesoyl) | 2000 ± 200 nM | slightly reduced the cell viability | no cytotoxicity | significantly inhibited | significantly inhibited |  |  | 
CC(C)C[C@H]1NC(=O)[C@H](Cc2ccc(F)cc2)NC(=O)[C@H](CCCN)NC(=O)[C@H](CC(=O)O)NC(=O)[C@H](CC(=O)O)NC(=O)[C@@H](C(C)C)NC(=O)[C@H](Cc2ccc(O)cc2)NC(=O)c2cc3cc(c2)C(=O)NC[C@H](NC1=O)C(=O)N[C@@H](Cc1ccc(Cl)cc1)C(=O)N[C@H](Cc1ccc2ccccc2c1)C(=O)N[C@H](CCCNC(=N)N)C(=O)N[C@@H](CCCNC(=N)N)C(=O)N[C@H](CCCNC(=N)N)C(=O)N[C@@H](CCCNC(=N)N)C(=O)N[C@H](C(N)=O)CNC3=O [Peptide B7-95-2, TMA-Tyr-val-Asp-Asp-Orn-Fpa-leu-Dap-4-ClPhe-nal-arg-Arg-arg-Arg-Dap] (Y[dV]DD[Orn][Phe(4-F)][dL][Dap][Phe(4-Cl)][d2Nal][dR]R[dR]R[Dap]-NH2; linker N-8-15 via Trimesoyl) | 740 ± 60 nM |  |  | significantly inhibited | significantly inhibited | Competition for Etf-1 binding was observed |  | 
CC(C)C[C@H]1NC(=O)[C@H](Cc2ccc(F)cc2)NC(=O)[C@@H](Cc2ccc(O)cc2)NC(=O)[C@@H](CC(C)C)NC(=O)[C@@H](C(C)C)NC(=O)[C@H](Cc2ccc(O)cc2)NC(=O)c2cc3cc(c2)C(=O)NC[C@H](NC1=O)C(=O)N[C@@H](Cc1ccc(Cl)cc1)C(=O)N[C@H](Cc1ccc2ccccc2c1)C(=O)N[C@H](CCCNC(=N)N)C(=O)N[C@@H](CCCNC(=N)N)C(=O)N[C@H](CCCNC(=N)N)C(=O)N[C@@H](CCCNC(=N)N)C(=O)N[C@H](C(N)=O)CNC3=O [Peptide B7-133-9, TMA-Tyr-val-leu-tyr-Fpa-leu-Dap-4-ClPhe-nal-arg-Arg-arg-Arg-Dap] (Y[dV][dL][dY][Phe(4-F)][dL][Dap][Phe(4-Cl)][d2Nal][dR]R[dR]R[Dap]-NH2; linker N-7-14 via Trimesoyl) |  |  |  |  | only slightly reduced | Competition for Etf-1 binding was observed | 1.19 | 
CC(C)[C@H]1NC(=O)[C@@H](CCC(=O)O)NC(=O)c2cc3cc(c2)C(=O)NC[C@H](NC(=O)CNC(=O)[C@H](Cc2c[nH]c4ccccc24)NC(=O)[C@H](Cc2ccc(O)cc2)NC1=O)C(=O)N[C@@H](Cc1ccccc1)C(=O)N[C@H](Cc1ccc2ccccc2c1)C(=O)N[C@H](CCCNC(=N)N)C(=O)N[C@@H](CCCNC(=N)N)C(=O)N[C@H](CCCNC(=N)N)C(=O)N[C@@H](CCCNC(=N)N)C(=O)N[C@H](C(N)=O)CNC3=O [Peptide C8, TMA-glu-val-Tyr-Trp-Gly-Dap-Phe-nal-arg-Arg-arg-Arg-Dap] ([dE][dV]YWG[Dap]F[d2Nal][dR]R[dR]R[Dap]-NH2; linker N-6-13 via Trimesoyl) | 5000 ± 1200 nM |  |  | significantly inhibited | significantly inhibited |  | 0.14 | disrupted BECN1 binding to Etf-1
TMA-Tyr-Phg-Orn-ala-Ieu-Orn-leu-Dap-4-ClPhe-nal-arg-Arg-arg-Arg-Dap [Peptide B7-131-3] |  |  |  |  |  | Competition for Etf-1 binding was observed |  | 
